Assay results published in patent US12599137B2, “Composition for the drying of Tillandsia sp” (priority 2021, dated 2026).

Test system: Tillandsia sp
Assay: Sampler of 49 cells, each with one specimen of each Tillandsia species, photographic follow-up every 5 days for 30 days
Assay type: in vivo, Tillandsia aeranthos and Tillandsia recurvata
Description: Next, we proceeded to form a sampler consisting of a base on which a series of wooden slats separated at parallel intervals were placed, to which perpendicular slats were crossed, achieving a plurality of cells for a total of 49 flat cells. One specimen of Tillandsia aeranthos and one of Tillandsia recurvata were placed inside each cell. Each box was designated with a sequential number from No. 1 to No. 49 and a photographic follow-up was taken every 5 days for a total of 30 days.

Compound	dehydration result of Tillandsia sp, summary in words (conclusions on sampler box tests)	optimum concentration of the active ingredient in water (from Examples 3 to 7, FIG. 1)
Cc1c(C(=O)O)c(O)cc2c1C(=O)c1c(O)c([C@@H]3O[C@H](CO)[C@@H](O)[C@H](O)[C@H]3O)c(O)c(O)c1C2=O [carminic acid]	does not dehydrate	
O=C([O-])O.[Na+] [sodium bicarbonate]		0.07 g/mL
